# Test results taken from US4102887A, “Intermediates used in the preparation of phenyl-pyridylamine derivatives” (priority 1974, dated 1978).
# Structures can show the parent of a compound that is named as a salt. Where two headings read alike, the source gives them in different places.
# What was measured:
# [1] = test system: neuronal uptake of noradrenaline; test: Inhibition of uptake of 3H-NA in vitro in slices of mouse midbrain; assay type: cell-based; settings: in words; in vitro or in vivo not stated
# Protocol: (§1) It is not possible by experimental means to induce depressions in laboratory animals. In order to evaluate a possible anti-depressive effect of new substances biochemicalpharmacological test methods must be resorted to. One such method, which seems to give a good indication of the potential anti-depressive effects of the test substances, is described in Europ.
# (§2) The test substances were administered intraperitoneally half an hour before the animals were killed. […] The incubation time was 5 minutes with 5 minutes of preincubation before the labelled amines were added. The slices were dissolved in Soluene® and the amounts of radio-active amines taken up were determined by liquid scintillation. […] Active uptake is defined as that part of the radioactive uptake which is inhibited by a high concentration of cocaine.
# (§3) In the in vitro method, slices of mouse midbrain were preincubated for 5 minutes with a solution of the compound to be tested and then incubated as described above.
# [2] = cited from earlier work
# [3] = literature / prior patents; cited from earlier work
# [4] = test system: neuronal uptake of 5-hydroxytryptamine; test: Inhibition of uptake of 14C-5-HT in vitro in slices of mouse midbrain; assay type: cell-based
# Protocol: as §1, §2, §3
# [5] = test system: neuronal uptake of 5-hydroxytryptamine; test: Inhibition of uptake of 14C-5-HT in brain slices after in vivo (i.p.) administration; design: species or system mouse; settings: in words
# Protocol: as §1, §2
# [6] = test system: neuronal uptake of noradrenaline; test: Inhibition of uptake of 3H-NA in brain slices after in vivo (i.p.) administration; design: species or system mouse
# Protocol: as §1, §2
smiles,measurement,setting,value
"CNC/C=C(\c1ccc(Br)cc1)c1cccnc1 [E-form of the compound of the invention, (E)-3-(4-bromophenyl)-3-(3-pyridyl)-N-methyl-allylamine]",preferential inhibition of noradrenaline uptake,[1],primarily inhibits the uptake of noradrenaline
CN(C)CCC=C1c2ccccc2CCc2ccccc21 [amitriptyline],side effects,[2]; in vivo,"orthostatism, anticholinergic effects and above all, an arrhythmogenic i.e. heart arrhythmia developing effect"
same,start of the antidepressive effect,[2]; therapeutic use,does not start until some weeks after treatment
CNCCCN1c2ccccc2CCc2ccccc21 [desipramine],side effects,[2]; in vivo,"orthostatism, anticholinergic effects and above all, an arrhythmogenic i.e. heart arrhythmia developing effect"
same,start of the antidepressive effect,[2]; therapeutic use,does not start until some weeks after treatment
CN(C)CC=C(c1ccccc1)c1ccccc1,antidepressive effect,[3],have an antidepressive effect
"CNC/C=C(/c1ccc(Br)cc1)c1cccnc1 [Z-form of the compound of the invention, (Z)-3-(4-bromophenyl)-3-(3-pyridyl)-N-methyl-allylamine]","inhibition of the uptake of 5-HT in vitro, compared with prior art compounds","[4]; in words, tested as the hydrochloride",more potent inhibitor of the uptake of 5-HT in vitro than any of the prior art compounds
same,"inhibition of the uptake of 5-HT in vivo, compared with prior art compounds",[5],stronger inhibition of the uptake of 5-HT in vivo than do any of the prior art compounds tested
"CNC/C=C(/c1ccc(Br)cc1)c1cccnc1 [H Z hydrochloride, (Z)-3-(4-bromophenyl)-3-(3-pyridyl)-N-methyl-allylamine]",inhibition at 101 µmol/kg,"[6]; Mus musculus, ip, at the dose 101 μmole/kg i.p.",39%
same,Uptake of 3H-NA in vivo ED50,"[6]; i.p., half an hour before killing, mouse midbrain slices, dose for 50 percent decrease of active uptake, 30 min",> 101 µmol/kg
"CNCC=C(c1ccc(Br)cc1)c1cccnc1 [H mixture oxalate, N-methyl-3-(4-bromophenyl)-3-(3-pyridyl)allylamine oxalate]",EC50,"[4]; Mus musculus, mouse midbrain slices, 5 min preincubation, 5 min incubation",500 nM
"CNC/C=C(/c1ccc(Br)cc1)c1cccnc1 [H Z oxalate, (Z)-3-(4-bromophenyl)-3-(3-pyridyl)-N-methyl-allylamine]",ED50,"[6]; Mus musculus, ip, 0.5 h, i.p., half an hour before killing, mouse midbrain slices, dose for 50 percent decrease of active uptake",102 µmol/kg
CNCCC=C1c2ccccc2CCc2ccccc21 [nortriptyline],side effects,"[2]; therapeutic use, arrhythmogenic in large doses to old patients","orthostatism, anticholinergic effects and above all, an arrhythmogenic i.e. heart arrhythmia developing effect"
same,start of the antidepressive effect,[2]; therapeutic use,does not start until some weeks after treatment
CN(C)CCCN1c2ccccc2CCc2ccccc21 [imipramine],side effects,[2]; in vivo,"orthostatism, anticholinergic effects and above all, an arrhythmogenic i.e. heart arrhythmia developing effect"
same,start of the antidepressive effect,[2]; therapeutic use,does not start until some weeks after treatment
